Key:
Format in all cases: in vivo
[1] = test system: purple nutsedge (Cyperus rotundus); test: Test B pre-/postemergence; parameters: key: 0 is no effect; 10 is complete control
Procedure, shortened: (§1)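 Scored visually 0 (none) to 10 (complete control) against untreated plants after twelve to sixteen greenhouse days. Test chemicals, formulated in surfactant-containing non-phytotoxic solvent, applied to soil after planting and, separately, onto 1- to 4-leaf (2–18 cm) plants.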

wild oat (Avena fatua) = test: Test B pre-/postemergence; parameters: key: 0 is no effect; 10 is complete control
Procedure, shortened: as §1

[2] = test system: bamyardgrass (Echinochloa crus-galli); test: Test B flood test
Procedure, shortened: (§2)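 Flood test on plants grown to the 2-leaf stage; treated plants kept in greenhouse twelve to sixteen days, then visually rated against controls on a 0 (no effect) to 10 (complete control) scale.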

[3] = test system: duck salad (Heteranthera limosa); test: Test B flood test
Procedure, shortened: as §2

rice (Oryza sativa) = test: Test B flood test
Procedure, shortened: as §2

[4] = test system: smallflower flatsedge (Cyperus difformis); test: Test B flood test
Procedure, shortened: as §2

[5] = test system: common ragweed (Ambrosia elatior); test: Test C; parameters: key: 0 was no effect; 100 was complete control; details: PREEMERGENCE
[6] = test system: cotton (Gossypium hirsutum); test: Test C; parameters: key: 0 was no effect; 100 was complete control; details: PREEMERGENCE
[7] = test system: eastern black nightshade (Solanum ptycanthum); test: Test C; parameters: key: 0 was no effect; 100 was complete control; details: PREEMERGENCE
[8] = test system: fall panicum (Panicum dichotomiflorum); test: Test C; parameters: key: 0 was no effect; 100 was complete control; details: PREEMERGENCE
[9] = test system: field bindweed (Convolvulus arvensis); test: Test C; parameters: key: 0 was no effect; 100 was complete control; details: PREEMERGENCE
[10] = test system: giant foxtail (Setaria faberii); test: Test C; parameters: key: 0 was no effect; 100 was complete control; details: PREEMERGENCE
[11] = test system: lambsquarters (Chenopodium album); test: Test C; parameters: key: 0 was no effect; 100 was complete control; details: PREEMERGENCE
[12] = test system: redroot pigweed (Amaranthus retroflexus); test: Test C; parameters: key: 0 was no effect; 100 was complete control; details: PREEMERGENCE
soybean (Glycine max) = test: Test C; parameters: key: 0 was no effect; 100 was complete control; details: PREEMERGENCE
[13] = test system: surinam grass (Brachiaria decumbens); test: Test C; details: PREEMERGENCE
[14] = test system: wild poinsettia (Euphorbia heterophylla); test: Test C; parameters: key: 0 was no effect; 100 was complete control; details: PREEMERGENCE
[15] = Rate 62 g/ha, Postemergence (flood test)
[16] = Rate 125 g/ha, Postemergence section (flood test species)
[17] = Rate 250 g/ha, Postemergence (flood test species)
[18] = Rate 500 g/ha, Postemergence (flood test species)

## Cc1cnc(-n2ccc(C(F)(F)F)n2)nc1Cn1ccc(C(F)(F)F)n1 [Compound 52]
[1]; Rate 62 g/ha, Postemergence
  Plant response rating, Nutsedge: 1
[1]; Rate 62 g/ha, Preemergence
  Nutsedge plant response rating: 0
[1]; Rate 125 g/ha, Postemergence
  Nutsedge plant response rating: 3
[1]; Rate 500 g/ha, Postemergence
  Plant response rating, Nutsedge: 7
[1]; Rate 500 g/ha, Preemergence
  Plant response rating, Nutsedge: 1
Wild oat (Avena fatua); Rate 62 g/ha, Postemergence
  Wild oats plant response rating: 6
Wild oat (Avena fatua); Rate 62 g/ha, Preemergence
  Wild oats plant response rating: 3
Wild oat (Avena fatua); Rate 125 g/ha, Postemergence
  Wild oats plant response rating: 8
Wild oat (Avena fatua); Rate 125 g/ha, Preemergence
  Plant response rating, Wild oats: 5
Wild oat (Avena fatua); Rate 250 g/ha, Postemergence
  Plant response rating, Wild oats: 8
Wild oat (Avena fatua); Rate 250 g/ha, Preemergence
  Plant response rating, Wild oats: 9
Wild oat (Avena fatua); Rate 500 g/ha, Postemergence
  Plant response rating, Wild oats: 9
Wild oat (Avena fatua); Rate 500 g/ha, Preemergence
  Plant response rating, Wild oats: 10
[2]; [15]
  Plant response rating, Barnyardgrass: 5
[2]; [16]
  Barnyardgrass plant response rating: 6
[2]; [17]
  Plant response rating, Barnyardgrass: 7
[2]; [18]
  Plant response rating, Barnyardgrass: 8
[3]; [15]
  Plant response rating, Ducksalad: 9
[3]; [16]
  Ducksalad plant response rating: 9
[3]; [17]
  Plant response rating, Ducksalad: 9
[3]; [18]
  Plant response rating, Ducksalad: 9
Rice (Oryza sativa); [15]
  Plant response rating, Rice: 3
Rice (Oryza sativa); [16]
  Rice plant response rating: 5
Rice (Oryza sativa); [17]
  Plant response rating, Rice: 7
Rice (Oryza sativa); [18]
  Plant response rating, Rice: 7
[4]; [15]
  Plant response rating, S. Flatsedge: 9
[4]; [16]
  S. Flatsedge plant response rating: 9
[4]; [17]
  Plant response rating, S. Flatsedge: 9
[4]; [18]
  Plant response rating, S. Flatsedge: 9
[5]; Rate 35 g/ha
  Plant response rating, Common ragweed: 40
[5]; Rate 70 g/ha
  Plant response rating, Common ragweed: 60
[5]; Rate 140 g/ha
  Plant response rating, Common ragweed: 100
[6]; Rate 35 g/ha
  Plant response rating, Cotton: 0
[6]; Rate 70 g/ha
  Plant response rating, Cotton: 0
[6]; Rate 140 g/ha
  Plant response rating, Cotton: 70
[7]; Rate 35 g/ha
  Plant response rating, E. blacknightsh: 40
[7]; Rate 70 g/ha
  Plant response rating, E. blacknightsh: 80
[7]; Rate 140 g/ha
  Plant response rating, E. blacknightsh: 100
[8]; Rate 35 g/ha
  Plant response rating, Fall panicum: 100
[8]; Rate 70 g/ha
  Plant response rating, Fall panicum: 100
[8]; Rate 140 g/ha
  Plant response rating, Fall panicum: 100
[9]; Rate 35 g/ha
  Plant response rating, Field bindweed: 100
[9]; Rate 70 g/ha
  Plant response rating, Field bindweed: 100
[9]; Rate 140 g/ha
  Plant response rating, Field bindweed: 100
[10]; Rate 35 g/ha
  Plant response rating, Giant foxtail: 70
[10]; Rate 70 g/ha
  Plant response rating, Giant foxtail: 85
[10]; Rate 140 g/ha
  Plant response rating, Giant foxtail: 100
[11]; Rate 35 g/ha
  Plant response rating, Lambsquarters: 100
[11]; Rate 70 g/ha
  Plant response rating, Lambsquarters: 100
[11]; Rate 140 g/ha
  Plant response rating, Lambsquarters: 100
[12]; Rate 35 g/ha
  Plant response rating, Redroot pigweed: 100
[12]; Rate 70 g/ha
  Plant response rating, Redroot pigweed: 100
[12]; Rate 140 g/ha
  Plant response rating, Redroot pigweed: 100
Soybean (Glycine max); Rate 35 g/ha
  Plant response rating, Soybean: 0
Soybean (Glycine max); Rate 70 g/ha
  Plant response rating, Soybean: 55
Soybean (Glycine max); Rate 140 g/ha
  Plant response rating, Soybean: 70
[13]; Rate 35 g/ha
  Plant response rating, Surinam grass: 5
[13]; Rate 70 g/ha
  Plant response rating, Surinam grass: 40
[13]; Rate 140 g/ha
  Plant response rating, Surinam grass: 70
[14]; Rate 70 g/ha
  Plant response rating, Wild poinsettia: 40
[14]; Rate 140 g/ha
  Plant response rating, Wild poinsettia: 100

From patent publication US6525001B1, “Substituted pyrimidine and pyridine herbicides” (Mid-American Commercialization Corporation, priority 1997, dated 2003)
